Active and inactive are the calls of the source. No cut-off for these calls is given here.
What follows are compounds tested against T1, Type-1 angiotensin II receptor (Homo sapiens) (UniProt P30556) (assay: Binding affinity to AT1 receptor (unknown origin)).
T1 sequence (whole entry): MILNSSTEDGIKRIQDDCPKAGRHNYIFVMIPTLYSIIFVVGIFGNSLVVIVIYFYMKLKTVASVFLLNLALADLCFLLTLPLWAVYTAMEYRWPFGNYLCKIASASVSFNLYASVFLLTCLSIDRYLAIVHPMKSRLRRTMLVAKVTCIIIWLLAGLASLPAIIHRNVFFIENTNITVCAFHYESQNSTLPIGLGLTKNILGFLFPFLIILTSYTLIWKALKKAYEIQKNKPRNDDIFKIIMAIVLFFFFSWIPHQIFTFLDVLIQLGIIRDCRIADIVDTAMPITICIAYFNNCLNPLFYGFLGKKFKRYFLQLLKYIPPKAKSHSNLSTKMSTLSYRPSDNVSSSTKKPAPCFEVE
With `CCCCNC(=O)[C@@H](NC(=O)c1cccc(Cn2ccnc2)c1)[C@@H](C)CC` the Activity was “inactive”. With `CC[C@H](C)[C@H](NC(=O)c1cccc(Cn2ccnc2)c1)C(=O)NS(=O)(=O)c1ccccc1` the Activity was “inactive”. With `CC[C@H](C)[C@H](NC(=O)c1cccc(Cn2ccnc2)c1)C(=O)NNS(=O)(=O)c1ccc(OC)cc1` the Activity was “inactive”. For `CC[C@H](C)[C@H](NC(=O)c1cccc(Cn2ccnc2)c1)C(=O)Nc1nccs1`, the Activity was “inactive”. For `CC[C@H](C)[C@H](NC(=O)c1cccc(Cn2ccnc2)c1)C(=O)NCC(F)(F)F`, the Activity was “inactive”. `CCCCS(=O)(=O)NC(=O)[C@@H](NC(=O)c1cccc(Cn2ccnc2)c1)[C@@H](C)CC` was tested, and the Activity was “inactive”. In the case of `CC[C@H](C)[C@H](NC(=O)c1cccc(Cn2ccnc2)c1)C(=O)NNS(=O)(=O)c1ccccc1`, the Activity is reported as “inactive”. `CC[C@H](C)[C@H](NC(=O)c1cccc(Cn2ccnc2)c1)C(=O)NC#N` was tested, and the Activity was “inactive”. `CCCCCS(=O)(=O)NNC(=O)[C@@H](NC(=O)c1cccc(Cn2ccnc2)c1)[C@@H](C)CC` was tested, and the Activity was “inactive”. `CC[C@H](C)[C@H](NC(=O)c1cccc(Cn2ccnc2)c1)c1nn[nH]n1` was tested, and the Activity was “inactive”. With `CC[C@H](C)[C@H](NC(=O)c1cccc(Cn2ccnc2)c1)C(=O)NO` the Activity was “inactive”. `CCCCS(=O)(=O)NNC(=O)[C@@H](NC(=O)c1cccc(Cn2ccnc2)c1)[C@@H](C)CC` was tested, and the Activity was “inactive”. `CC[C@H](C)[C@H](NC(=O)c1cccc(Cn2ccnc2)c1)C(=O)O` was tested, and the Activity was “inactive”. For `CC[C@H](C)[C@H](NC(=O)c1cccc(Cn2ccnc2)c1)C(N)=O`, the Activity was “inactive”. For `CC[C@H](C)[C@H](NC(=O)c1cccc(Cn2ccnc2)c1)C(=O)NNS(=O)(=O)c1c(C)cc(C)cc1C`, the Activity was “inactive”. For `CC[C@H](C)[C@H](NC(=O)c1cccc(Cn2ccnc2)c1)C(=O)NNC(=O)OC(C)(C)C`, the Activity was “inactive”. `CC[C@H](C)[C@H](NC(=O)c1cccc(Cn2ccnc2)c1)C(=O)NNS(=O)(=O)c1ccc(C)cc1` was tested, and the Activity was “inactive”.

These compounds were tested against T2, Type-2 angiotensin II receptor (Homo sapiens, UniProt P50052) (assay: Displacement of [125I]Sarile from human AT2 receptor expressed in HEK293 cells).
T2 sequence (P50052 whole entry): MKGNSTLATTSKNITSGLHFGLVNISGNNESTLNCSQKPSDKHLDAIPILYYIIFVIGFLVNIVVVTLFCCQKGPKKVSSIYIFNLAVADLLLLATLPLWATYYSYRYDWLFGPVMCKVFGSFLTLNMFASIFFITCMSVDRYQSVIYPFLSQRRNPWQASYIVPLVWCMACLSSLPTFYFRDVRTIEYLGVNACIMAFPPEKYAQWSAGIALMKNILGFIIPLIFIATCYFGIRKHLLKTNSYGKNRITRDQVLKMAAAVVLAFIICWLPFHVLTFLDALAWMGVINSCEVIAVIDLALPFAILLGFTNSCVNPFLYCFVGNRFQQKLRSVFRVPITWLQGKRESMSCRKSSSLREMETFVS
Format: cell-based
A Ki of 47 µM was found for `CC[C@H](C)[C@H](NC(=O)c1cccc(Cn2ccnc2)c1)C(=O)O` in this work.

What follows are compounds tested against T3, Type-2 angiotensin II receptor (Homo sapiens) (UniProt P50052) (assay: Displacement of [125I]CGP-42112A from human AT2 receptor expressed in HEK293 cells at 10 uM).
T3 sequence (whole entry): T2 sequence (P50052 whole entry)
Format: cell-based
An inhibition of 3% was found for `CCCCNC(=O)[C@@H](NC(=O)c1cccc(Cn2ccnc2)c1)[C@@H](C)CC` in this work. An inhibition of 24% was found for `CC[C@H](C)[C@H](NC(=O)c1cccc(Cn2ccnc2)c1)C(=O)NS(=O)(=O)c1ccccc1` in this work. An inhibition of 20% was found for `CC[C@H](C)[C@H](NC(=O)c1cccc(Cn2ccnc2)c1)C(=O)NNS(=O)(=O)c1ccc(OC)cc1` in this work. An inhibition of 17% was found for `CC[C@H](C)[C@H](NC(=O)c1cccc(Cn2ccnc2)c1)C(=O)Nc1nccs1` in this work. An inhibition of 14% was found for `CC[C@H](C)[C@H](NC(=O)c1cccc(Cn2ccnc2)c1)C(=O)NCC(F)(F)F` in this work. An inhibition of 18% was found for `CC[C@H](C)[C@H](NC(=O)c1cccc(Cn2ccnc2)c1)C(=O)NNS(=O)(=O)c1ccccc1` in this work. An inhibition of 9% was found for `CC[C@H](C)[C@H](NC(=O)c1cccc(Cn2ccnc2)c1)C(=O)NC#N` in this work. For `CC[C@H](C)[C@H](NC(=O)c1cccc(Cn2ccnc2)c1)c1nn[nH]n1`, the inhibition was “inactive”. An inhibition of 4% was found for `CC[C@H](C)[C@H](NC(=O)c1cccc(Cn2ccnc2)c1)C(=O)NO` in this work. With `CC[C@H](C)[C@H](NC(=O)c1cccc(Cn2ccnc2)c1)C(N)=O` the inhibition was “inactive”. An inhibition of 27% was found for `CC[C@H](C)[C@H](NC(=O)c1cccc(Cn2ccnc2)c1)C(=O)NNS(=O)(=O)c1c(C)cc(C)cc1C` in this work. An inhibition of 20% was found for `CC[C@H](C)[C@H](NC(=O)c1cccc(Cn2ccnc2)c1)C(=O)NNS(=O)(=O)c1ccc(C)cc1` in this work.

What follows are compounds tested against T2, Type-2 angiotensin II receptor (assay: Displacement of [125I]CGP-42112A from human AT2 receptor expressed in HEK293 cells).
Format: cell-based
A Ki of 18 µM was found for `CC[C@H](C)[C@H](NC(=O)c1cccc(Cn2ccnc2)c1)C(=O)NS(=O)(=O)c1ccccc1` in this work. A Ki of 9.2 µM was found for `CC[C@H](C)[C@H](NC(=O)c1cccc(Cn2ccnc2)c1)C(=O)NNS(=O)(=O)c1ccc(OC)cc1` in this work. A Ki of 42 µM was found for `CC[C@H](C)[C@H](NC(=O)c1cccc(Cn2ccnc2)c1)C(=O)Nc1nccs1` in this work. A Ki of 9.9 µM was found for `CCCCS(=O)(=O)NC(=O)[C@@H](NC(=O)c1cccc(Cn2ccnc2)c1)[C@@H](C)CC` in this work. A Ki greater than 100 µM was found for `CC[C@H](C)[C@H](NC(=O)c1cccc(Cn2ccnc2)c1)C(=O)NNS(=O)(=O)c1ccccc1` in this work. A Ki greater than 100 µM was found for `CCCCCS(=O)(=O)NNC(=O)[C@@H](NC(=O)c1cccc(Cn2ccnc2)c1)[C@@H](C)CC` in this work. A Ki greater than 100 µM was found for `CCCCS(=O)(=O)NNC(=O)[C@@H](NC(=O)c1cccc(Cn2ccnc2)c1)[C@@H](C)CC` in this work. A Ki of 8.5 µM was found for `CC[C@H](C)[C@H](NC(=O)c1cccc(Cn2ccnc2)c1)C(=O)NNS(=O)(=O)c1c(C)cc(C)cc1C` in this work. A Ki greater than 100 µM was found for `CC[C@H](C)[C@H](NC(=O)c1cccc(Cn2ccnc2)c1)C(=O)NNC(=O)OC(C)(C)C` in this work. A Ki of 29 µM was found for `CC[C@H](C)[C@H](NC(=O)c1cccc(Cn2ccnc2)c1)C(=O)NNS(=O)(=O)c1ccc(C)cc1` in this work.

Each compound was assayed against T3, Type-2 angiotensin II receptor (Homo sapiens) (assay: Displacement of [125I]CGP-42112A from human AT2 receptor expressed in HEK293 cells at 1 uM).
Format: cell-based
In the case of `CCCCNC(=O)[C@@H](NC(=O)c1cccc(Cn2ccnc2)c1)[C@@H](C)CC`, the inhibition is reported as “inactive”. An inhibition of 5% was found for `CC[C@H](C)[C@H](NC(=O)c1cccc(Cn2ccnc2)c1)C(=O)NS(=O)(=O)c1ccccc1` in this work. An inhibition of 3% was found for `CC[C@H](C)[C@H](NC(=O)c1cccc(Cn2ccnc2)c1)C(=O)NNS(=O)(=O)c1ccc(OC)cc1` in this work. An inhibition of 4% was found for `CC[C@H](C)[C@H](NC(=O)c1cccc(Cn2ccnc2)c1)C(=O)Nc1nccs1` in this work. An inhibition of 6% was found for `CC[C@H](C)[C@H](NC(=O)c1cccc(Cn2ccnc2)c1)C(=O)NCC(F)(F)F` in this work. An inhibition of 6% was found for `CC[C@H](C)[C@H](NC(=O)c1cccc(Cn2ccnc2)c1)C(=O)NNS(=O)(=O)c1ccccc1` in this work. An inhibition of 6% was found for `CC[C@H](C)[C@H](NC(=O)c1cccc(Cn2ccnc2)c1)C(=O)NC#N` in this work. In the case of `CC[C@H](C)[C@H](NC(=O)c1cccc(Cn2ccnc2)c1)c1nn[nH]n1`, the inhibition is reported as “inactive”. In the case of `CC[C@H](C)[C@H](NC(=O)c1cccc(Cn2ccnc2)c1)C(=O)NO`, the inhibition is reported as “inactive”. In the case of `CC[C@H](C)[C@H](NC(=O)c1cccc(Cn2ccnc2)c1)C(N)=O`, the inhibition is reported as “inactive”. An inhibition of 10% was found for `CC[C@H](C)[C@H](NC(=O)c1cccc(Cn2ccnc2)c1)C(=O)NNS(=O)(=O)c1c(C)cc(C)cc1C` in this work. An inhibition of 4% was found for `CC[C@H](C)[C@H](NC(=O)c1cccc(Cn2ccnc2)c1)C(=O)NNS(=O)(=O)c1ccc(C)cc1` in this work.

From ChEMBL document CHEMBL3102730, “Synthesis and evaluation of isoleucine derived angiotensin II AT(2) receptor ligands” (Bioorg Med Chem Lett, 2014)
